From patent US20250109139A1, “TRICYCLIC COMPOUND, AND PREPARATION METHOD THEREFOR AND USE THEREOF” (SHANGHAITECH UNIVERSITY, priority 2022, published 2025) come the findings set out here.

Test [1] concerns the target T1, 5-hydroxytryptamine 1A (5-HT1A) receptors (Homo sapiens (Human), UniProt P08908). Description: 5-HT1A receptor Gαi1 BRET (G protein trimer dissociation). As to conditions: relative to endogenous ligand 5-hydroxytryptamine. It is filed as cell-based. Background: In BRET a luciferase serves as donor, and the signal depends on an acceptor being close.
Test [2] has as its target T2, dopamine D2 receptors (Homo sapiens (Human), UniProt P14416). Description: Dopamine D2 receptor radioligand competition binding assay ([3H]-Methylspiperone). As to conditions: [3H]-Methylspiperone 0.3 to 0.5 nM, 293T membranes; read-out: Affinity Ki. An outline of the steps:
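Membranes from cells transfected with human D2 receptor, PEI-mediated; competition with [3H]-methylspiperone for 2 h at room temperature in the dark.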
For orientation: Displacement assays read how much labelled ligand stays bound in the presence of the test substance.

Test [3] has as its target T1, 5-hydroxytryptamine 1A (5-HT1A) receptors. Briefly: 5-HT1A receptor β-arrestin2 BRET (recruitment). The test is classed as cell-based. Particulars: relative to endogenous ligand 5-hydroxytryptamine. The procedure: At the same time, in order to examine the downstream β-arrestin2 signaling pathway mediated by 5-HT1A receptors, on the first day, a 6 cm culture dish was used for transfection with 500 ng of 5-HT1A receptors containing C-terminal seaweed luciferase (5HT1AR-Rluc), 500 ng of G protein-coupled receptor kinase 2 (GRK2), 2500 ng of β-arrestin2 containing N-terminal green fluorescent protein (GFP2-ARRB2), and 14 μL of PEI. The next day, the confluent cells of a 6 cm culture dish were digested and reseeded into a 96-well plate with 100 μL of culture medium added to each well. On the third day, the drugs were added for test. The 96-well plate was taken out from the cell incubator to decant the culture medium, 40 µL of the substrate coelenterazine 400a (final concentration of 5 μM) was added to each well, and then 20 μL of different drugs were added sequentially from left to right to ensure that the final concentration of the drug decreased gradually from bottom to top, with two replicates per treatment. Finally, the prepared samples were loaded on machine for test. The machine readout value reflected the recruitment of β-arrestin2 to the membrane or the dissociation of G protein trimer. The former indicated the degree of activation of the β-arrestin2 signaling pathway downstream of the 5-HT1 serotonin 1A receptors, and the latter indicated the degree of activation of the G protein signaling pathway downstream of the serotonin 1A receptors.

Test [4] shares this target. Briefly: 5-HT1A receptor radioligand competition binding assay ([3H]-LSD). As to conditions: 293T membranes, read-out: Affinity Ki. The procedure: The affinity of the compounds of the present disclosure for 5-hydroxytryptamine 1A (5-HT1A) receptors was determined by a radioligand competition binding assay.
In the first step, a cell membrane component containing specific 5-HT1A receptors was prepared. […] A vacuum pump was used to suck off the culture medium, 3 mL of lysis buffer was added to each culture dish, and the cells were placed in a 4° C. cold room for 10 minutes. After the cells were detached, the cells were transferred to a 15 mL centrifuge tube and centrifuged at 1500 rpm for 5 minutes at 4° C., and the supernatant was discarded. The cell pellet was transferred to a tissue homogenizer, and 3 mL of lysis buffer was added and fully ground until the cells were broken. Then, cell suspension was equally aliquoted into several EP tubes, centrifuged at 12000 rpm for 5 minutes at 4° C., and the supernatant was discarded. The precipitate was the cell membrane component containing the 5-HT1A receptors.
First, a standard binding buffer was added to the cell membrane component containing the 5-HT1A receptors, and the cell membrane was disrupted and resuspended with an electric tissue homogenizer. 30 μL of membrane protein suspension was added to each well of a 96-well plate. Then, 30 μL of different drugs were added to the 96-well plate sequentially from bottom to top to ensure that the final drug concentrations were 10^−5 M, 10^−6 M, 10^−7 M, 10^−8 M, 10^−9 M, and 0 M, with two replicates per treatment. Next, 30 μL of [^3H]-LSD was added to each well of the 96-well plate. The plate was incubated at room temperature in the dark for 2 hours. Detection was conducted. The machine readout value reflected the amount of [^3H]-LSD bound on the membrane, and after further data processing, the binding affinity Ki values of different compounds for the 5-HT1A receptors were obtained.

The target of test [5] is T2, dopamine D2 receptors. Briefly: Dopamine D2 receptor Gαi1 BRET (G protein trimer dissociation). The test is classed as cell-based. Particulars: for Emax: relative to endogenous ligand dopamine, read-out: Gαi1 BRET Emax % ± SEM; for EC50: unit printed only in Cariprazine cell, read-out: Gαi1 BRET EC50. Summed up: (§1)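 G-protein assay: cells co-transfected with D2 receptor, Gαi1-Rluc, Gβ3 and Gγ9-GFP (1 μg each); β-arrestin2 assay: D2-Rluc, GRK2 and GFP2-β-arrestin2 co-transfected. Cells were reseeded after one day and tested on day three. Drug dilution series were added in duplicate with coelenterazine 400a (5 μM final), and the BRET signal was read.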

The target of test [6] is T2, dopamine D2 receptors. Description: Dopamine D2 receptor β-arrestin2 BRET (recruitment). It is filed as cell-based. As to conditions: for Emax: relative to endogenous ligand dopamine, read-out: β-arrestin2 BRET Emax % ± SEM; for EC50: unit printed only in Cariprazine cell, read-out: β-arrestin2 BRET EC50. Summed up:
as §1

In the next test the target is 5-HT2A receptors (Homo sapiens (Human), UniProt P28223). Description: 5-HT2A receptor radioligand competition binding assay ([3H]-ketanserin). The method, then: The affinity of the compounds of the present disclosure for 5-HT2A receptors was determined by a radioligand competition binding assay. In the first step, a cell membrane component containing specific 5-HT2A receptor was prepared. A 10 cm dish was used for transfection with […] of 5-HT2A receptors and 40 μL of PEI. After 48 hours, the 10 cm dish was taken out from the cell incubator and the cultured cells had expressed the 5-HT2A receptors. A vacuum pump was used to suck off the culture medium, 3 mL of lysis buffer was added to each culture dish, and the cells were placed in a 4° C. cold room for 10 minutes. After the cells were detached, the cells were transferred to a 15 mL centrifuge tube and centrifuged at 1500 rpm for 5 minutes at 4° C., and the supernatant was discarded. The cell pellet was transferred to a tissue homogenizer, and 3 mL of lysis buffer was added and fully ground until the cells were broken. Then, cell suspension was equally aliquoted into several EP tubes, centrifuged at 12000 rpm for 5 minutes at 4° C., and the supernatant was discarded. The precipitate was the cell membrane component containing the 5-HT2A receptors. […] First, a standard binding buffer was added to the cell membrane component containing the 5-HT2A receptors, and the cell membrane was disrupted and resuspended with an electric tissue homogenizer. 30 μL of membrane protein suspension was added to each well of a 96-well plate. Then, 30 μL of different drugs were added to the 96-well plate sequentially from bottom to top to ensure that the final drug concentrations were 10^−5 M, 10^−6 M, 10^−7 M, 10^−8 M, 10^−9 M, and 0 M, with two replicates per treatment. Next, 30 μL of [^3H]-ketanserin was added to each well of the 96-well plate. The plate was incubated at room temperature in the dark for 2 hours. Detection was conducted. The machine readout value reflected the amount of [^3H]-ketanserin bound on the membrane, and after further data processing, the affinity Ki values of different compounds for the 5-HT2A receptors were obtained.
Chain of 5-HT2A receptors (P28223 whole entry): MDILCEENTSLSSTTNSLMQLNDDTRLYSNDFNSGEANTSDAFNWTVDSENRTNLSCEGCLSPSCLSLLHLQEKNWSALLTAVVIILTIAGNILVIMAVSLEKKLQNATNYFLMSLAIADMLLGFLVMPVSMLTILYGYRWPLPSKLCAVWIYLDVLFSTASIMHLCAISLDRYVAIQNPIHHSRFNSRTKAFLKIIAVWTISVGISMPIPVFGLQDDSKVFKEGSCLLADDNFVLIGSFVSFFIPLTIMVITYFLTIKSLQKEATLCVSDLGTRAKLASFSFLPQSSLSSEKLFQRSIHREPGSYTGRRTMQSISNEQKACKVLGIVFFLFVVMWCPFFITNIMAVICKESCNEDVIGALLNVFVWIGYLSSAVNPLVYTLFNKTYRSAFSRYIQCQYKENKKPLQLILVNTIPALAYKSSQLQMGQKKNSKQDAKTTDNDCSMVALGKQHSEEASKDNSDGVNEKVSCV

The structures appear in SMILES notation.

T1 sequence (P08908 whole entry): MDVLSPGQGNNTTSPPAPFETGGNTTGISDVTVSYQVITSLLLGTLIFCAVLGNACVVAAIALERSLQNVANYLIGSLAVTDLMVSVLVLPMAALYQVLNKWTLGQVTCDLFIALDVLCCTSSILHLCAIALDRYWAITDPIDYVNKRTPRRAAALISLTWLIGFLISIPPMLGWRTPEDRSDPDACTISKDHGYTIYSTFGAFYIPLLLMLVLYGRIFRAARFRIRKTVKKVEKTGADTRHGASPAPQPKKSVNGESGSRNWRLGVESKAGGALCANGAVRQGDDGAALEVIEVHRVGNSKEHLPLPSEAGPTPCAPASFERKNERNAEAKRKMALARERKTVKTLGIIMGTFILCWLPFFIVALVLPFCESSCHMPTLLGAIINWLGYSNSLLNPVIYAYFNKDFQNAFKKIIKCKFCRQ
T2 sequence (P14416 whole entry): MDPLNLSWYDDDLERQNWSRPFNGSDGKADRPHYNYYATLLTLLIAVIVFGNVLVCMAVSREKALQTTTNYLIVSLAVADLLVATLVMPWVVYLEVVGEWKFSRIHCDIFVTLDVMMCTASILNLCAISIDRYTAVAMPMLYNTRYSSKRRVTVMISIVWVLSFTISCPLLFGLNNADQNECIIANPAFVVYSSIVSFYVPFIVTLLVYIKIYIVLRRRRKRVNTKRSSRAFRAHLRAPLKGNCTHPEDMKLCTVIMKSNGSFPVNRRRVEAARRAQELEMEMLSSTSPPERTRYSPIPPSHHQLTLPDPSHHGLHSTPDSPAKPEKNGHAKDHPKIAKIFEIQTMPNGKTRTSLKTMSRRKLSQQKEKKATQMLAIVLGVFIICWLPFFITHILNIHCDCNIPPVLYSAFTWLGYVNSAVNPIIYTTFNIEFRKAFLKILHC

Broadly, the Emax is the maximal effect, on the per cent scale that the assay sets. As usually defined, the Ki is a measure of affinity in units of concentration, obtained from inhibition or displacement. With `COc1cccc2c3c(oc12)CN(CCNC(=O)C1CCC(F)(F)CC1)CC3` [I-A15, 4,4-difluoro-N-(2-(8-methoxy-3,4-dihydrobenzofuro[2,3-c]pyridin-2(1H)-yl)ethyl)cyclohexane-1-carboxamide], the Emax is 123% in test [1] and 92% in test [3]. The inhibition constant (Ki) on dopamine D2 receptors [2] amounted to 272 nM; in test [4], 5.43 nM.
Usually EC50 stands for the concentration giving half of the maximal effect. As for `COc1cccc2c3c(oc12)CN(CCCCn1ncc(=O)n(C)c1=O)CC3` [I-A22, 2-(4-(8-methoxy-3,4-dihydrobenzofuro[2,3-c]pyridin-2(1H)-yl)butyl)-4-methyl-1,2,4-triazine-3,5(2H,4H)-dione], the Emax stood at 59.5% in test [1], 79% on dopamine D2 receptors [5], 49.6% in test [3] and 89% at dopamine D2 receptors [6]. The values for the concentration giving a half-maximal response (EC50) at dopamine D2 receptors [5] and at dopamine D2 receptors [6] were 56 nM and 86.4 nM, respectively. In addition, the Ki in test [4] was determined as 0.073 nM.
Consider `CCOc1cccc2c3c(oc12)CN(CCc1ccc2ccc(=O)[nH]c2c1)CC3` [I-A27, 7-(2-(8-ethoxy-3,4-dihydrobenzofuro[2,3-c]pyridin-2(1H)-yl)ethyl)quinolin-2(1H)-one], for which the maximal effect (Emax) amounted to 64.1% in test [1], 57% on dopamine D2 receptors [5] and 101% at dopamine D2 receptors [6]. The EC50 on dopamine D2 receptors [5] came to 45.2 nM; at dopamine D2 receptors [6], 55 nM. For the same compound, the Ki in test [4] came out at 0.64 nM.
For the compound `CCOc1cccc2c3c(oc12)CN(CCCCOc1ccc2ccc(=O)[nH]c2n1)CC3` [I-A29, 7-(4-(8-ethoxy-3,4-dihydrobenzofuro[2,3-c]pyridin-2(1H)-yl)butoxy)-1,8-naphthyridin-2(1H)-one], the Emax in test [1] is 90.3%; on dopamine D2 receptors [5], 40%; in test [3], 8.46%; on dopamine D2 receptors [6] it was 47%. Besides, the Ki at dopamine D2 receptors [2] stood at 27.7 nM; on 5-HT2A receptors ([3H]-ketanserin, 293T membranes, read-out: Ki), 5520 nM. In addition, the concentration for a half-maximal effect (EC50) on dopamine D2 receptors [5] stood at 33.1 nM; at dopamine D2 receptors [6] it was 10.1 nM. In addition, the “affinity for 5-HT2A receptors (in words)” value at 5-HT2A receptors is given as “very weak affinity”.
For the compound `CCOc1cccc2c3c(oc12)CN(CCNC(=O)C1CCCCCC1)CC3` [I-A32, N-(2-(8-ethoxy-3,4-dihydrobenzofuro[2,3-c]pyridin-2(1H)-yl)ethyl)cycloheptanecarboxamide], the Emax in test [1] was determined as 102%; at dopamine D2 receptors [5], 21%; in test [3], 31.6%; at dopamine D2 receptors [6], 12%. For the same compound, the EC50 on dopamine D2 receptors [5] is 12.9 nM; on dopamine D2 receptors [6], 233 nM. Also, the Ki in test [4] is 2.55 nM.
`CCOc1cccc2c3c(oc12)CN(CCNC(=O)c1cccs1)CC3` [I-A36, N-(2-(8-ethoxy-3,4-dihydrobenzofuro[2,3-c]pyridin-2(1H)-yl)ethyl)thiophene-2-carboxamide]: the Emax was 100% in test [1], 38.7% in test [3] and 12% at dopamine D2 receptors [6]. In addition, at dopamine D2 receptors [6], the 50% effective concentration (EC50) is 0.75 nM.
With `CCOc1cccc2c3c(oc12)CN(CCN1CCCc2c(ccn2C)C1=O)CC3` [I-A41, 5-(2-(8-ethoxy-3,4-dihydrobenzofuro[2,3-c]pyridin-2(1H)-yl)ethyl)-1-methyl-5,6,7,8-tetrahydropyrrolo[3,2-c]azepin-4(1H)-one], the Emax in test [1] was 98.8%; in test [3], 14.3%. Also, the Ki in test [4] was 0.78 nM.
Taken in the same sequence, the figures for `CCOc1cccc2c3c(oc12)CN(CCN1CCCc2c(cnn2C)C1=O)CC3` [I-A42, 5-(2-(8-ethoxy-3,4-dihydrobenzofuro[2,3-c]pyridin-2(1H)-yl)ethyl)-1-methyl-5,6,7,8-tetrahydropyrazolo[4,3-c]azepin-4(1H)-one] were 101%, 21% and 0.42 nM.
In the case of `CCOc1cccc2c3c(oc12)CN(CCCCn1ncc(=O)n(C)c1=O)CC3` [I-A43, 2-(4-(8-ethoxy-3,4-dihydrobenzofuro[2,3-c]pyridin-2(1H)-yl)butyl)-4-methyl-1,2,4-triazine-3,5(2H,4H)-dione], the values for the Emax (in test [1]; on dopamine D2 receptors [6]) were 84.3% and 21%, respectively. Also, the EC50 at dopamine D2 receptors [6] came to 48.8 nM. Further, the Ki in test [4] came to 0.015 nM.
As to `COc1cccc2c1cc1n2CCN(CCNC(=O)C2CCOCC2)C1` [I-C8, N-(2-(9-methoxy-3,4-dihydropyrazino[1,2-a]indol-2(1H)-yl)ethyl)tetrahydro-2H-pyran-4-carboxamide], the Emax stood at 81% in test [1] and 79% in test [3]. The Ki at dopamine D2 receptors [2] was 239 nM.
